Earlier results in patent US10927398B2, “Compositions for CYP450 phenotyping using saliva samples” (Concordia University, Inc., priority 2015, dated 2021).
Like-named read-outs stand apart in the source and are kept apart here.

Tests used:
[1] = cited from earlier work
[2] = cited from earlier work; remark: listed apart in the source
[3] = system: plasma protein; settings: Table of Exemplary Drugs, cited from earlier work
[4] = Table of Exemplary Drugs, CYP3A4
[5] = Table of Exemplary Drugs, CYP2C9
[6] = Table of Exemplary Drugs, CYP2D6
[7] = Table of Exemplary Drugs, CYP2C19
[8] = Table of Exemplary Drugs, CYP1A2

For `CCS(=O)(=O)CCn1c([N+](=O)[O-])cnc1C` [Tinidazole (Tindamax), Tinidazole], the “HALF-LIFE” value [1, 4] is listed as 11.1 to 14.7 h, the “ORAL BIOAVAILABILITY” value [2, 4] is listed as 100% and the “PLASMA PROTEIN BINDING” value ([3]; CYP3A4) is listed as 12%.
For `CC[C@H]1OC(=O)[C@H](C)[C@@H](O[C@H]2C[C@@](C)(OC)[C@@H](O)[C@H](C)O2)[C@H](C)[C@@H](O[C@@H]2O[C@H](C)C[C@H](N(C)C)[C@H]2O)[C@](C)(OC)C[C@@H](C)C(=O)[C@H](C)[C@@H](O)[C@]1(C)O` [Clarithromycin (Biaxin), Clarithromycin], the “HALF-LIFE” value [1, 4] is listed as 4 h, the “ORAL BIOAVAILABILITY” value [2, 4] is listed as 55% and the “PLASMA PROTEIN BINDING” value ([3]; CYP3A4) is listed as “Low”.
In the case of `CC#C[C@]1(O)CC[C@H]2[C@@H]3CCC4=CC(=O)CCC4=C3[C@@H](c3ccc(N(C)C)cc3)C[C@@]21C` [Mifepristone (Mifeprex), Mifepristone], the “HALF-LIFE” value [1, 4] is given as 20 to 85 h, the “ORAL BIOAVAILABILITY” value [2, 4] is given as 69% and the “PLASMA PROTEIN BINDING” value ([3]; CYP3A4) is given as 99.2%^.
In the case of `CCOc1cc(CC(=O)N[C@@H](CC(C)C)c2ccccc2N2CCCCC2)ccc1C(=O)O` [Repaglinide (Prandin), Repaglinide], the “HALF-LIFE” value [1, 4] is given as 1 h, the “ORAL BIOAVAILABILITY” value [2, 4] is given as 56% and the “PLASMA PROTEIN BINDING” value ([3]; CYP3A4) is given as greater than 98%.
For `CC(C(=O)O)c1ccc(C(=O)c2cccs2)cc1` (stereo not drawn) [Suprofen], the “HALF-LIFE” value [1, 5] is given as 2 to 4 h, the “ORAL BIOAVAILABILITY” value [2, 5] is given as 92% and the “PLASMA PROTEIN BINDING” value ([3]; CYP2C9) is given as greater than 99%.
In the case of `COC(=O)C1=C(C)NC(C)=C(C(=O)OCC(C)C)C1c1ccccc1[N+](=O)[O-]` (stereo not drawn) [Nisoldipine (Sular), Nisoldipine], the “HALF-LIFE” value [1, 4] is listed as 13.7 h, the “ORAL BIOAVAILABILITY” value [2, 4] is listed as 5% and the “PLASMA PROTEIN BINDING” value ([3]; CYP3A4) is listed as 99%.
For `CCC1=C(C)CN(C(=O)NCCc2ccc(S(=O)(=O)NC(=O)N[C@H]3CC[C@H](C)CC3)cc2)C1=O` [Glimepiride], the “HALF-LIFE” value [1, 5] is given as 5 to 9.2 h, the “ORAL BIOAVAILABILITY” value [2, 5] is given as 100% and the “PLASMA PROTEIN BINDING” value ([3]; CYP2C9) is given as greater than 99%.
For `COc1cccc(C2(O)CCCCC2CN(C)C)c1` (stereo not drawn) [Tramadol], the “HALF-LIFE” value ([1]; in vivo) is given as 5.6 to 5.7 h, the “ORAL BIOAVAILABILITY” value [2, 6] is given as 75% and the “PLASMA PROTEIN BINDING” value ([3]; CYP2D6) is given as 20%.
In the case of `CNCC[C@@H](Oc1ccccc1C)c1ccccc1` [Atomoxetine], the “HALF-LIFE” value [1, 6] is listed as 5.2 h, the “ORAL BIOAVAILABILITY” value [2, 6] is listed as 63% and the “PLASMA PROTEIN BINDING” value ([3]; CYP2D6) is listed as 98%.
For `C=CCc1ccccc1OCC(O)CNC(C)C` (stereo not drawn) [Alprenolol], the “HALF-LIFE” value [1, 6] is given as 2 to 3 h, the “ORAL BIOAVAILABILITY” value [2, 6] is given as 20% and the “PLASMA PROTEIN BINDING” value ([3]; CYP2D6) is given as 80%.
For `COc1ccc2nc([S@@+]([O-])Cc3ncc(C)c(OC)c3C)[nH]c2c1` [Esomeprazole], the “HALF-LIFE” value [1, 7] is given as 1.5 h, the “ORAL BIOAVAILABILITY” value [2, 7] is given as 90% and the “PLASMA PROTEIN BINDING” value ([3]; CYP2C19) is given as 97%.
For `CC(C)(C)c1ccc(C(=O)CCCN2CCC(OC(c3ccccc3)c3ccccc3)CC2)cc1` [Ebastine (Kestine), Ebastine], the “HALF-LIFE” value [1, 4] is given as 24.8 h, the “ORAL BIOAVAILABILITY” value [2, 4] is given as ““High”” and the “PLASMA PROTEIN BINDING” value ([3]; CYP3A4) is given as 98%.
In the case of `CC(C)n1c(/C=C/C(O)CC(O)CC(=O)O)c(-c2ccc(F)cc2)c2ccccc21` (stereo not drawn) [Fluvastatin], the “HALF-LIFE” value [1, 5] is listed as 2.5 h, the “ORAL BIOAVAILABILITY” value [2, 5] is listed as 24% and the “PLASMA PROTEIN BINDING” value ([3]; CYP2C9) is listed as 98%.
For `CC(C)C[C@H]1C(=O)N2CCC[C@H]2[C@]2(O)O[C@](NC(=O)[C@@H]3C=C4c5cccc6[nH]c(Br)c(c56)C[C@H]4N(C)C3)(C(C)C)C(=O)N12` [Bromocriptine (Parlodel), Bromocriptine], the “HALF-LIFE” value [1, 4] is given as 6 to 20 h, the “ORAL BIOAVAILABILITY” value [2, 4] is given as 65-95% and the “PLASMA PROTEIN BINDING” value ([3]; CYP3A4) is given as 90-96% ^.
In the case of `O=C1NC(=O)C(c2ccccc2)(c2ccccc2)N1` [Phenytoin], the “HALF-LIFE” value [1, 5] is listed as 14 to 22 h, the “HALF-LIFE” value [1, 7] is listed as 14 to 22 h and the “ORAL BIOAVAILABILITY” value [2, 5] is listed as 20-90%. The “ORAL BIOAVAILABILITY” value [2, 7] was 20-90%, the “PLASMA PROTEIN BINDING” value ([3]; CYP2C9) was 88-93% ^ and the “PLASMA PROTEIN BINDING” value ([3]; CYP2C19) was 88-93% ^.
For `CNCCC(Oc1ccc(C(F)(F)F)cc1)c1ccccc1` (stereo not drawn) [Fluoxetine], the HALF-LIFE [1, 5] is listed as 96 to 140 h, the HALF-LIFE [1, 6] is listed as 96 to 140 h and the “ORAL BIOAVAILABILITY” value [2, 5] is listed as 60-80%. The “ORAL BIOAVAILABILITY” value [2, 6] was 60-80%, the “PLASMA PROTEIN BINDING” value ([3]; CYP2C9) was 94.5%^ and the “PLASMA PROTEIN BINDING” value ([3]; CYP2D6) was 94.5%^.
In the case of `Cc1ccsc1C(=CCCN1CCC[C@@H](C(=O)O)C1)c1sccc1C` [Tiagabine (Gabitril), Tiagabine], the “HALF-LIFE” value [1, 4] is listed as 7 to 9 h, the “ORAL BIOAVAILABILITY” value [2, 4] is listed as 90% and the “PLASMA PROTEIN BINDING” value ([3]; CYP3A4) is listed as 96%.
In the case of `COC(=O)N[C@H](C(=O)N[C@@H](Cc1ccccc1)[C@@H](O)CN(Cc1ccc(-c2ccccn2)cc1)NC(=O)[C@@H](NC(=O)OC)C(C)(C)C)C(C)(C)C` [Atazanavir (Reyataz), Atazanavir], the “HALF-LIFE” value [1, 4] is listed as 7 h, the “ORAL BIOAVAILABILITY” value [2, 4] is listed as 60-68% and the “PLASMA PROTEIN BINDING” value ([3]; CYP3A4) is listed as 86%.
For `O=C(NCCN1CCOCC1)c1ccc(Cl)cc1` [Moclobemide], the “HALF-LIFE” value [1, 7] is given as 2 h, the “ORAL BIOAVAILABILITY” value [2, 7] is given as 55-95% and the “PLASMA PROTEIN BINDING” value ([3]; CYP2C19) is given as 50%.
In the case of `OC(CNCC(O)C1CCc2cc(F)ccc2O1)C1CCc2cc(F)ccc2O1` (stereo not drawn) [Nebivolol], the “HALF-LIFE” value [1, 6] is listed as 12 to 19 h, the “ORAL BIOAVAILABILITY” value [2, 6] is listed as 12-96% and the “PLASMA PROTEIN BINDING” value ([3]; CYP2D6) is listed as 98%.
In the case of Polyunsaturated FAs, the “HALF-LIFE” value [1, 5] is given as 2.7 to 5.5 h, the “ORAL BIOAVAILABILITY” value [2, 5] is given as 64-73% and the “PLASMA PROTEIN BINDING” value ([3]; CYP2C9) is given as greater than 99%.
For `COc1ccc2c3c1O[C@H]1[C@@H](O)C=C[C@H]4[C@@H](C2)N(C)CC[C@@]341` [Codeine], the “HALF-LIFE” value ([1]; in vivo) is listed as 2.5 to 3 h, the “ORAL BIOAVAILABILITY” value ([2]; in vivo, po) is listed as 90% and the “PLASMA PROTEIN BINDING” value ([3]; CYP2D6) is listed as 7-25%^.
In the case of `CN1CCN(C2=Nc3cc(Cl)ccc3Nc3ccccc32)CC1` [Clozapine], the “HALF-LIFE” value [1, 8] is given as 4 to 66 h, the “ORAL BIOAVAILABILITY” value [2, 8] is given as 12-81% and the “PLASMA PROTEIN BINDING” value ([3]; CYP1A2) is given as 97%.
In the case of `CN(C)CCCC1(c2ccc(F)cc2)OCc2cc(C#N)ccc21` (stereo not drawn) [Citalopram], the “HALF-LIFE” value [1, 7] is listed as 35 h, the “ORAL BIOAVAILABILITY” value [2, 7] is listed as 80% and the “PLASMA PROTEIN BINDING” value ([3]; CYP2C19) is listed as 80%.
In the case of `CN1CCN(C(=O)OC2c3nccnc3C(=O)N2c2ccc(Cl)cn2)CC1` (stereo not drawn) [Zopiclone (Imovane), Zopiclone], the “HALF-LIFE” value [1, 4] is given as 3.5 to 6.5 h, the “ORAL BIOAVAILABILITY” value [2, 4] is given as 80% and the “PLASMA PROTEIN BINDING” value ([3]; CYP3A4) is given as 45%.
In the case of `O=C(CCCN1CCC(O)(c2ccc(Cl)cc2)CC1)c1ccc(F)cc1` [Haloperidol], the “HALF-LIFE” value [1, 8] is listed as 14 to 37 h, the “HALF-LIFE” value [1, 6] is listed as 14 to 37 h and the “ORAL BIOAVAILABILITY” value [2, 8] is listed as 60%. The “ORAL BIOAVAILABILITY” value [2, 6] was 60%, the “PLASMA PROTEIN BINDING” value ([3]; CYP1A2) was 88.4-92.5% ^ and the “PLASMA PROTEIN BINDING” value ([3]; CYP2D6) was 88.4-92.5% ^.
In the case of `[H]/N=C(/N)N/C(=N/[H])NCCc1ccccc1` [Phenformin], the “HALF-LIFE” value [1, 6] is given as 4 to 13 h, the “ORAL BIOAVAILABILITY” value [2, 6] is given as 40-60% and the “PLASMA PROTEIN BINDING” value ([3]; CYP2D6) is given as 12-20% ^.
